In patent publication US11628159B2, “Cell-protective compounds and their use” (ETH ZURICH, priority 2017, dated 2023):

System: GRK2-mediated phosphorylation of SRSF1
Test: Immunoblot of SRSF1 phosphorylation (pSRSF1) in HEK (human embryonic kidney) cells
Type: cell-based
Conditions: 10 microM, 60 h, relative to vehicle
Experimental: A, The GRK2-mediated phosphorylation of SRSF1/Srsf1 was determined by immunoblot in lysates from isolated neonatal cardiomyocytes from Tg-SRSF1 mice after incubation for 60 h with 10 microM of paroxetine, 1-(1,3-benzodioxol-5-yl)-4-(cyclopropane-carbonyl)-3-hydroxy-2-phenyl-2H-pyrrol-5-one (“Compound-1”) or 4-(1,3-benzodioxol-5-yl)pyrimidine (“Compound-4”) relative to vehicle-treated control (“C”) cardiomyocytes. B, Immunoblot detection of GRK2-mediated phosphorylation of SRSF1 (pSRSF1) was performed with lysates from HEK (human embryonic kidney) cells incubated for 60 h with 10 microM of 4-(1,3-benzodioxol-5-yl)pyrimidine (“Compound-4”), 1-(1,3-benzodioxol-5-ylmethyl)-5-(4-chlorophenyl)-2-methyl-pyrrole-3-carboxamide (“Compound-24”) or (4R)-N3-(1,3-benzodioxol-5-ylmethyl)-N4-[[3-(trifluoromethyl)phenyl]-methyl]pyrrolidine-3,4-dicarboxamide (“Compound-5”) relative to vehicle-treated controls (“C”).
Briefly, the hearts were dissected out from 2-3 day-old mice, atria and aorta were removed, and the hearts were transferred into sterile buffer A (137 mM NaCl, 5.36 mM KCl, 0.81 mM MgSO4, 5.55 mM dextrose, 0.44 mM KH2PO4, 0.34 mM Na2HPO4, 20 mM HEPES, 100 U/ml penicillin, 100 microg/ml streptomycin, pH 7.4). […]

In the case of `c1cc(-c2ccc3c(c2)OCO3)ncn1` [Compound-4, 4-(1,3-benzodioxol-5-yl)pyrimidine], the “SRSF1 phosphorylation in human kidney cells” value is reported as “inhibited”.
